Experiment [1] deals with T1, human His-PIM2 [23-299] (Homo sapiens, UniProt Q9P1W9).
T1 construct: purified human His-PIM2 [23-299] enzyme; His (N); host or cells: E. coli
The experiment in a line: PIM2 in-vitro mobility shift assay (Caliper LC3000, FL-Ahx-Bad phosphorylation). It counts as biochemical. Particulars: 1.5 h; percent inhibition at 0.3 uM compound; read-out: PIM2 % I at 0.3 uM.

In experiment [2] the target is T2, human His-PIM1 [2-313] (Homo sapiens, UniProt P11309).
T2 construct: purified human His-PIM1 [2-313] enzyme; His (N); purchased University of Dundee, Scotland; host or cells: baculovirus system
The experiment in a line: PIM1 in-vitro mobility shift assay (Caliper LC3000, FL-Ahx-Bad phosphorylation). It counts as biochemical. Particulars: 1.5 h, read-out: PIM1 % I at 0.3 uM. In short, it runs like this:
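Compound preincubated 20 min at 25 °C with 2.4 nM PIM1, 3.6 µM FL-Ahx-Bad peptide and 240 µM ATP (1.2× mix concentrations). Reaction started with 24 mM MgCl2 mix, run 90 min at 25 °C, EDTA-stopped. Phospho/unphospho peptide separated by microfluidic mobility shift; percent inhibition from ratiometric turnover.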

The mark [3] stands for this setting: percent inhibition at 0.3 uM compound.

Inhibition data for 33 compounds are collected here from patent US8901307B2, “Chemical compounds 251” (AstraZeneca AB, priority 2008, dated 2014).

Structures can show the parent of a compound that is named as a salt. Where two headings read alike, the source gives them in different places.

T2 sequence (P11309 2-313): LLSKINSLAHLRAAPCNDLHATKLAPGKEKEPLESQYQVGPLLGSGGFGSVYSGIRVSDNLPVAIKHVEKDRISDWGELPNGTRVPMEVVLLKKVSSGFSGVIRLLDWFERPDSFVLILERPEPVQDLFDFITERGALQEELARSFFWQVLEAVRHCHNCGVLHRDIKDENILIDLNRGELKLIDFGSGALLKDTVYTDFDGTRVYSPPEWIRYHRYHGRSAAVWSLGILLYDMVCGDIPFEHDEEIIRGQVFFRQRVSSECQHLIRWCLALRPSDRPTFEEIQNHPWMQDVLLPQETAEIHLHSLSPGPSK
T1 sequence (Q9P1W9 23-299): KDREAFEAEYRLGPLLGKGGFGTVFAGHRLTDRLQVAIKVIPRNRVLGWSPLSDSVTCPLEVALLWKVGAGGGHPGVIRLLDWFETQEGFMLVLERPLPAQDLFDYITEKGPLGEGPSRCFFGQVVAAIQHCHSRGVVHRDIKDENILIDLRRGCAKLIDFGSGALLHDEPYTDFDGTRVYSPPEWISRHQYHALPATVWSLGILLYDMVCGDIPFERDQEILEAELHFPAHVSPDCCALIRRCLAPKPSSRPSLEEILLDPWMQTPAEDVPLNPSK

For the compound `NCCCN[C@H]1CCN(c2ccc(C(F)(F)F)cc2/C=C2\SC(=O)NC2=O)C1` [Example 123, (S,Z)-5-(2-(3-(3-aminopropylamino)pyrrolidin-1-yl)-5-(trifluoromethyl)benzylidene)thiazolidine-2,4-dione hydrochloride], the inhibition at 0.3 µM in experiment [1] and in experiment [2] (setting [3]) was above 95% in each case.
For `COc1cccc(/C=C2\SC(=O)NC2=O)c1N1CC[C@H](NCCCN)C1` [Example 124], the inhibition at 0.3 µM in experiment [1] and in experiment [2] (setting [3]) was above 95% throughout.
Consider `NCCCN[C@H]1CCN(c2c(Cl)cccc2/C=C2\SC(=O)NC2=O)C1` [Example 125], for which the inhibition at 0.3 µM in experiment [1] and in experiment [2] (setting [3]) was above 95% each time.
For `COc1cc(/C=C2\SC(=O)NC2=O)c(N2CCC(NCCCN)C2)cc1OC` (stereo not drawn) [Example 126], the inhibition at 0.3 µM in experiment [1] and in experiment [2] (setting [3]) was above 95% throughout.
Take `NCCCN1CCN(c2ccccc2/C=C2\SC(=O)NC2=O)CC1` [Example 127]: the inhibition at 0.3 µM in experiment [1] and in experiment [2] (setting [3]) was above 95% throughout.
Regarding `COc1cc(/C=C2\SC(=O)NC2=O)c(N2CCC(NC(=O)CCN)C2)cc1OC` (stereo not drawn) [Example 128], the inhibition at 0.3 µM in experiment [1] was determined as 49%; in experiment [2] (setting [3]), 81.2%.
The matching figures for `NCCC(=O)N1CCN(c2ccccc2/C=C2\SC(=O)NC2=O)CC1` [Example 129A]: above 95% and above 95%.
The matching figures for `NCCCN[C@@H]1CCCN(c2c(Cl)cccc2/C=C2\SC(=O)NC2=O)C1` [Example 129B]: above 95% and above 95%.
In the case of `COc1ccc(OCCCN)c(C=C2SC(=O)NC2=O)c1` [Example 129C], the inhibition at 0.3 µM is 52.1% in experiment [1] and 85% in experiment [2] (setting [3]).
Take `CC(=O)N1CCN(c2ccccc2/C=C2\SC(=O)NC2=O)CC1` [Example 130, (5Z)-5-[2-(4-acetylpiperazin-1-yl)benzylidene]-1,3-thiazolidine-2,4-dione]: the results for the inhibition at 0.3 µM in experiment [1] and in experiment [2] were 45.5% and 66.2%, respectively.
Take `COc1cc(/C=C2\SC(=O)NC2=O)c(N2CCC(NC(C)=O)C2)cc1OC` (stereo not drawn) [Example 131A]: the inhibition at 0.3 µM in experiment [1] is below 5%; in experiment [2] (setting [3]) it was 27.1%.
For the compound `CC(=O)Nc1ccc(N2CCC(N(C)C)C2)c(/C=C2\SC(=O)NC2=O)c1` (stereo not drawn) [Example 131B], the inhibition at 0.3 µM in experiment [1] and in experiment [2] (setting [3]) was below 5% in each case.
For the compound `COc1cc(/C=C2\SC(=O)NC2=O)c(N2CCC(NCCO)C2)cc1OC` (stereo not drawn) [Example 132, (Z)-5-(2-(3-(2-hydroxyethylamino)pyrrolidin-1-yl)-4,5-dimethoxybenzylidene)thiazolidine-2,4-dione], the inhibition at 0.3 µM was 88.1% in experiment [1] and 93% in experiment [2] (setting [3]).
Regarding `O=C1NC(=O)/C(=C/c2cccc(Cl)c2N2CCC[C@@H](NCCO)C2)S1` [Example 133], the inhibition at 0.3 µM in experiment [1] is 93.4%; in experiment [2] (setting [3]), above 95%.
Consider `O=C1NC(=O)/C(=C/c2cccc(Cl)c2N2CCC[C@@H](NCCCO)C2)S1` [Example 134], for which the inhibition at 0.3 µM is 85.2% in experiment [1] and above 95% in experiment [2] (setting [3]).
In the case of `Cn1ccnc1C(=O)N[C@H]1CCN(c2c(Cl)cccc2/C=C2\SC(=O)NC2=O)C1` [Example 135, (S,Z)-N-(1-(2-chloro-6-((2,4-dioxothiazolidin-5-ylidene)methyl)phenyl)pyrrolidin-3-yl)-1-methyl-1H-imidazole-2-carboxamide], the inhibition at 0.3 µM in experiment [1] was 10.8%; in experiment [2] (setting [3]), 42.5%.
For the compound `COCC(=O)N[C@H]1CCN(c2c(Cl)cccc2/C=C2\SC(=O)NC2=O)C1` [Example 136], the inhibition at 0.3 µM in experiment [1] was 44.6%; in experiment [2] (setting [3]), 82.8%.
In the case of `Cn1ccc(C(=O)N[C@H]2CCN(c3c(Cl)cccc3/C=C3\SC(=O)NC3=O)C2)n1` [Example 137], the inhibition at 0.3 µM in experiment [1] stood at 18.6%; in experiment [2] (setting [3]), 55.1%.
On to `NC(=O)NCC(=O)N[C@H]1CCN(c2c(Cl)cccc2/C=C2\SC(=O)NC2=O)C1` [Example 138], for which the figures for the inhibition at 0.3 µM in experiment [1] and in experiment [2] (setting [3]) were 63.2% and 87.9%, respectively.
For `O=C(Cc1cccnc1)N[C@H]1CCN(c2c(Cl)cccc2/C=C2\SC(=O)NC2=O)C1` [Example 139], the inhibition at 0.3 µM in experiment [1] is 15.1%; in experiment [2] (setting [3]), 58.1%.
`O=C(Cc1ccncc1)N[C@H]1CCN(c2c(Cl)cccc2/C=C2\SC(=O)NC2=O)C1` [Example 140]: the inhibition at 0.3 µM in experiment [1] came out at 52%; in experiment [2] (setting [3]), 73.3%.
The like results for `Cn1cc(C(=O)N[C@H]2CCN(c3c(Cl)cccc3/C=C3\SC(=O)NC3=O)C2)cn1` [Example 141] were, in that order, below 5% and 34.9%.
As to `O=C(CN1CC[S+]([O-])CC1)N[C@H]1CCN(c2c(Cl)cccc2/C=C2\SC(=O)NC2=O)C1` [Example 142], the inhibition at 0.3 µM came out at 75.2% in experiment [1] and 86.1% in experiment [2] (setting [3]).
The like results for `NS(=O)(=O)CCCC(=O)N[C@H]1CCN(c2c(Cl)cccc2/C=C2\SC(=O)NC2=O)C1` [Example 143] were, in that order, 49.8% and 85.9%.
With `CN(C)C(=O)CCC(=O)N[C@H]1CCN(c2c(Cl)cccc2/C=C2\SC(=O)NC2=O)C1` [Example 144], the inhibition at 0.3 µM in experiment [1] turned out to be 21.2%; in experiment [2] (setting [3]) it was 63.2%.
As for `CN(C)CC(=O)N[C@H]1CCN(c2c(Cl)cccc2/C=C2\SC(=O)NC2=O)C1` [Example 145], the inhibition at 0.3 µM is 80.1% in experiment [1] and above 95% in experiment [2] (setting [3]).
For `N#CCC(=O)N[C@H]1CCN(c2c(Cl)cccc2/C=C2\SC(=O)NC2=O)C1` [Example 146], the inhibition at 0.3 µM was 48.5% in experiment [1] and 88.9% in experiment [2] (setting [3]).
Regarding `CC(=O)NCC(=O)N[C@H]1CCN(c2c(Cl)cccc2/C=C2\SC(=O)NC2=O)C1` [Example 147], the inhibition at 0.3 µM is 36.4% in experiment [1] and 74.3% in experiment [2] (setting [3]).
The matching figures for `CCCN(CCC)[C@@H]1CCCN(c2c(Cl)cccc2/C=C2\SC(=O)NC2=O)C1` [Example 148, (R,Z)-5-(3-chloro-2-(3-(dipropylamino)piperidin-1-yl)benzylidene)thiazolidine-2,4-dione]: 60.8% and 91.5%.
For `O=C1NC(=O)/C(=C/c2cccc(Cl)c2N2CCC[C@@H](NCCC(F)(F)F)C2)S1` [Example 149], the figures for the inhibition at 0.3 µM in experiment [1] and in experiment [2] (setting [3]) were 75.4% and above 95%, respectively.
As for `COc1ccc(OCCCNC(C)C)c(C=C2SC(=O)NC2=O)c1` [Example 150], the inhibition at 0.3 µM stood at 31.7% in experiment [1] and 79.8% in experiment [2] (setting [3]).
In the case of `CN(C)C1CCN(c2ccc(N)cc2/C=C2\SC(=O)NC2=O)C1` (stereo not drawn) [Example 151, (Z)-5-(5-amino-2-(3-(dimethylamino)pyrrolidin-1-yl)benzylidene)thiazolidine-2,4-dione], the results for the inhibition at 0.3 µM in experiment [1] and in experiment [2] (setting [3]) were 13.5% and 31.5%, respectively.
Take `COc1cc(N)c(/C=C2\SC(=O)NC2=O)cc1OC` [Example 152]: the inhibition at 0.3 µM in experiment [1] worked out at 16.7%; in experiment [2] (setting [3]), 10.8%.
